We go through four molecules from patent publication US11390617B2, “Methods of treating non-Hodgkin lymphoma using 2-(2,6-dioxopiperidin-3-yl)-4-((2-fluoro-4-((3-morpholinoazetidin-1-yl)methyl)benzyl)amino)isoindoline-1,3-dione” (Celgene Corporation, priority 2019, dated 2022).

For one test, the system named is SU-DHL-4 cell line. The experiment in a line: Cell proliferation and viability assay using SU-DHL-4 cell line (Cell Titer-Glo). It is filed as cell-based. Particulars: Homo sapiens, SU-DHL-4, 120 hours. The method, then: The following exemplary assay uses a DLBCL cell line, for example, the SU-DHL-4 cell line (Deutsche Sammlung von Mikroorganismen und Zellkulturen GmbH [DSMZ]: catalogue number ACC-495) at 120 hours post-treatment. The seeding density for SU-DHL-4 can be optimized to ensure assay linearity in 1536-well plates.
Increasing concentrations (0.5 nM to […]) of Compounds 1, 2, and 3 were each spotted in a 20-point dilution fashion (unevenly spaced data points) via an acoustic dispenser (EDC ATS-100) into an empty 1536-well plate. The DMSO concentration was kept constant for a final assay concentration of 0.1% DMSO. Prior to testing, SU-DHL-4 cells were grown in RPMI-1640 (Roswell Park Memorial Institute-1640) medium with 10% FBS (fetal bovine serum: HyClone) and expanded in culture flasks to provide sufficient amounts of starting material. Cells were then diluted to 500 cells per well in a 5 μL volume, and added directly to the compound-spotted 1536-well plates. Cells were allowed to grow for 120 hours in 5% CO2 at 37° C. At the time when exposure of cells to compound began (t0), initial viable cell number was assessed via Cell Titer-Glo® Luminescent Cell Viability Assay at a 1 vol: 2 vol ratio according to manufacturer's instructions (Promega Corporation, Madison, Wis.) by quantifying the level of luminescence generated by adenosine-5′-triphosphate (ATP) present in viable cells. After 120 hours, cell viability of the treated cells was assessed via Cell Titer-Glo© and read for luminescence. All growth inhibition curves were processed and evaluated using Activity Base (IDBS, Alameda, Calif.). Cell viability IC50 values were calculated using a four parameter logistic model (sigmoidal dose-response model): y=(A+((B−A)/(1+((C/x)^D)))) wherein: A=YMin B=YMax C=EC50 D=Hill slope IC50=the concentration of the compound when Y=50% of DMSO control Y=cell viability measured as luminescence unit, and x=concentration of compound.

Test [1] concerns OCI-LY10-Luc CNS DLBCL xenograft. Nature of the test: OCI-LY10-Luc CNS lymphoma xenograft model (intracranial). Particulars: 30 mg/kg QD oral, 3 weeks. It is filed as in vivo, Nude (nu/nu) mice. The method, then:
Antitumor activity of Compound 1 was evaluated as a single agent in OCI-LY10-luc diffuse large B-cell lymphoma (DLBCL) xenografted intracranially into nude mice as a model for central nervous system (CNS) lymphoma.
CNS lymphoma study was conducted with OCI-LY-10 cells transfected with luciferase (OCI-LY-10-Luc). Nude (nu/nu) mice were inoculated intracranially into the right cerebral hemisphere of the brain with OCI-LY10-Luc cells. Following inoculation of animals, the tumors were allowed to grow for 5 days. On day 5 following tumor cell inoculation, the mice were imaged using IVIS100 imaging system. The mice having tumors with an average flux ranging between 1×10^7 and 2×10^7 photons/sec were pooled together and randomized into various treatment groups. Compound 1 was formulated in 0.5% Methyl Cellulose, 0.25% Tween 80 and 50 mM Citrate pH 3 (MCT) in water. The animals were orally administered vehicle (MCT) or Compound 1 once daily (QD) for 3 weeks. Doses of Compound 1 ranged between 3 and 30 mg/kg. The positive control pomalidomide (30 mg/kg, QD) formulated in aqueous 0.5% CMC and 0.25% Tween-80 was administered PO. The animals were imaged for bioluminescence once a week using IVIS100 imaging system and monitored for survival. Statistical analysis was performed using a log-rank test between Compound 1-treated and vehicle-treated control groups.

The test system of test [2] is SUDHL-6 DLBCL xenograft tumors. Nature of the test: SUDHL-6 (DLBCL) xenograft model. Type of test: in vivo, female SCID mice. The settings on record: rituximab 10 mg/kg intraperitoneally BIW, single agent. On the procedure:
(§1) Female 6- to 8-weeks-old CB17 SCID mice were obtained from Charles River Laboratories. Mice were housed in a barrier facility in micro-isolator cages at 10 animals per cage. Mice were fed with Harlan-Teklad LM-485 Mouse/Rat Sterilizable Diet and autoclaved water ad libitum and maintained on a 12 hours light-dark cycle. Animals were acclimatized to the animal housing facility for a period of 7 days before the beginning of the experiment. All animal studies were performed under protocols approved by Institutional Animal Care and Use Committees.
(§2) Suspensions of Compound 1 were pared in aqueous 0.5% Methyl Cellulose, 0.25% Tween 80 and 50 mM Citrate pH 3. […]
(§3) Tumor cells were injected subcutaneously in the flank region above the right hind legs of female CB17 SCID mice. […] Tumor volumes were determined before the initiation of treatment and were considered as the starting volumes. Tumors were measured twice a week for the duration of the study. The long and short axes of each tumor were measured using a digital caliper in millimeters. The tumor volumes were calculated using the formula: width^2×length/2. […]
(§4) Xenograft data are expressed as mean±SEM. […]
Xenograft study was conducted with female SCID mice bearing SUDHL-6 DLBCL xenograft tumors. […] Tumors were measured twice a week using calipers and tumor volumes were calculated using the formula of W^2×L/2. […]

In test [3] the test system is RL follicular lymphoma xenograft tumors. Nature of the test: RL (follicular lymphoma) xenograft model, alone and in combination with rituximab. Type of test: in vivo, female SCID mice. Particulars: rituximab 25 mg/kg intraperitoneally BIW, single agent. The method, then:
as §1, §2, §3, §4
Xenograft study was conducted with female SCID mice bearing RL follicular lymphoma xenograft tumors. […] Tumors were measured twice a week using calipers and tumor volumes were calculated using the formula of W^2×L/2. […]

The test system of test [4] is WSU-DLCL2 DLBCL xenograft tumors. The experiment in a line: WSU-DLCL2 (DLBCL) xenograft model. It is filed as in vivo, female SCID mice. Particulars: rituximab 10 mg/kg intraperitoneally BIW, single agent. On the procedure:
as §1
Suspensions of Compound 1 were pared in aqueous 0.5% Methyl Cellulose, 0.25% Tween 80 and 50 mM Citrate pH 3. The formulations were homogenized using a Teflon pestle and mortar (Potter-Elvehjem tissue grinder). For multiday studies, the compound was freshly formulated every day. Compound 1 and vehicle were administered by oral gavage. Rituximab was diluted in 0.9% saline and administered intraperitoneally.
Tumor cells were injected subcutaneously in the flank region above the right hind legs of female CB17 SCID mice. When the tumor volumes reach to approximately 200 mm^3, mice bearing tumors of 150-300 mm^3 were randomly assigned to receive oral doses of vehicle, Compound 1, rituximab or combination of Compound 1 (5 days on and 2 days off for 3 weeks) and rituximab (twice a week) for the duration of the study. Tumor volumes were determined before the initiation of treatment and were considered as the starting volumes. Tumors were measured twice a week for the duration of the study. The long and short axes of each tumor were measured using a digital caliper in millimeters. The tumor volumes were calculated using the formula: width^2×length/2. The tumor volumes were expressed in cubic millimeters (mm^3).
Xenograft data are expressed as mean±SEM. Statistical analyses were performed using GraphPad Prism. […]
Xenograft study was conducted with female SCID mice bearing WSU-DLCL2 DLBCL xenograft tumors. […] Tumors were measured twice a week using calipers and tumor volumes were calculated using the formula of W^2×L/2. […]

Bounds are passed on as bounds.

Molecule `O=C1CC[C@@H](N2C(=O)c3cccc(NCc4ccc(CN5CC(N6CCOCC6)C5)cc4F)c3C2=O)C(=O)N1` [Compound 2, (R)-2-(2,6-dioxopiperidin-3-yl)-4-((2-fluoro-4-((3-morpholinoazetidin-1-yl)methyl)benzyl)amino)isoindoline-1,3-dione] had an IC50 in the test on SU-DHL-4 cell line of under 200 nM. Same read-out and setting: as for `O=C1CCC(N2C(=O)c3cccc(NCc4ccc(CN5CC(N6CCOCC6)C5)cc4F)c3C2=O)C(=O)N1` (stereo not shown) [Compound 3, 2-(2,6-dioxopiperidin-3-yl)-4-((2-fluoro-4-((3-morpholinoazetidin-1-yl)methyl)benzyl)amino)isoindoline-1,3-dione], the figure is under 200 nM.

Regarding `Nc1cccc2c1C(=O)N(C1CCC(=O)NC1=O)C2=O` (stereo not shown) [Pomalidomide, reference compound], in test [1] (relative to vehicle control), the “% BLI Inhibition on Day 26” value was found to be 68.8%. Besides, the “Median Survival” value in test [1] (vehicle 35 days) is 50 days. Rituximab [reference compound]: the values for the tumor volume reduction in test [2], in test [3] and in test [4] were 54%, 56% and 66%, respectively.

The IC50 is the midpoint of a concentration-inhibition curve.
